Assay results published in US20130059850A1, “AZA-INDOLE DERIVATIVES USEFUL AS MODULATORS OF FAAH” (MERCK SHARP & DOHME CORP., priority 2010, published 2013).

Biological target: T1, human FAAH (Fatty Acid Amide Hydrolase) (Homo sapiens, UniProt O00519)
T1 construct: The full length FAAH was subcloned into the mammalian expression vector, pcDEF.neo, using XbaI and EcoRI restriction sites; expressed in transfected cells
T1 sequence (O00519 1-579): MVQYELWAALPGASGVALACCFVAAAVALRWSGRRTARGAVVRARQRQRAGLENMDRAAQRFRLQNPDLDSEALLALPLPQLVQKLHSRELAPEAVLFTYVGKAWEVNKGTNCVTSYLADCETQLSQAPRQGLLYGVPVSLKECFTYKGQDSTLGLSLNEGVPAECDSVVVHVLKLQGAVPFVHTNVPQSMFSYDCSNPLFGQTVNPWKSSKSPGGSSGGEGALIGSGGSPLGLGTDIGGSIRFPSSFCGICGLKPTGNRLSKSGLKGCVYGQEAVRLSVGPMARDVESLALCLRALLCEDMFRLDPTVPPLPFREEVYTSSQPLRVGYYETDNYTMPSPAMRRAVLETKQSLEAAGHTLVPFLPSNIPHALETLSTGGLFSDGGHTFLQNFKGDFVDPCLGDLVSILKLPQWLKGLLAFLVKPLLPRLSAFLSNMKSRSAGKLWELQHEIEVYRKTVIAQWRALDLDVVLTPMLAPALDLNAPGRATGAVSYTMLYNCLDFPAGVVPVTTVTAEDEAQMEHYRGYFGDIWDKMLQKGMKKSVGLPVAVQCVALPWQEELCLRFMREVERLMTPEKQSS
Assay: FAAH enzyme assay on CHO cell lysate expressing human FAAH (human LY), AAMCA fluorescent substrate
Assay type: biochemical
Conditions: human FAAH_CHO cell lysate
Description: (§1) To assist in assay development stable cell lines for human, murine and rat full length FAAH were developed. Human FAAH cDNA (Accession No: NM_001441.1) was purchased from Origene (Rockville, Md.). The full length FAAH was subcloned into the mammalian expression vector, pcDEF.neo, using XbaI and EcoRI restriction sites and used for stable cell line generation.
CHO cells expressing FAAH were used to prepare either crude cell lysate or microsome fractions. To harvest cells, tissue culture media was decanted, the monolayer washed three times with Ca^++Mg^++ free PBS and cells recovered after […] in enzyme free dissociation media (Millipore Corp, Billerica, Mass.). Cells were collected by centrifuging at 2000 rpm for 15 min. and the cell pellet re-suspended with 50 mM HEPES (pH 7.4) containing 1 mM EDTA and the protease inhibitors aprotinin (1 mg/ml) and leupeptin (100 μM). The suspension was sonicated at 4° C. and the cell lysate recovered after centrifuging at 12,000×g (14,600 rpm, SS34 rotor) for 20 min at 4° C. to form a crude pellet of cell debris, nuclei, peroxisomes, lysosomes, and mitochondria; the supernatant or cell lysate was used for FAAH enzyme assay. In some cases, microsomes fractions enriched in FAAH were prepared by centrifuging the cell lysate further at 27,000 rpm (100,000×g) in SW28 rotor for 50 minutes at 4° C. The pellet containing FAAH-enriched microsomes was re-suspend in 50 mM HEPES, (pH 7.4) 1 mM EDTA, and any remaining DNA sheared by passage of material through a 23 gauge needle and aliquots of enzyme were store at −80° C. prior to use.
(§2) (American Radiolabeled Chemicals; 1 mCi/ml) with FAAH (Life Sciences (1995), 56, 1999-2005 and Journal of Pharmacology and Experimented Therapeutics (1997), 283, 729-734), Analytical. Biochemistry (2003), 318, 270-5. In addition, routine assays were performed monitoring hydrolysis of arachidonyl-7-amino-4-methylcoumarin amide (AAMCA) by following increase in fluorescence upon release of 7-amino 4-methyl coumarin (λEX=355 nm, μEM=460 nm). Analytical. Biochemistry (2005). 343, 143-51
(§3) Assays are performed on either cell lysate or microsome fractions prepared as described or in whole cell format employing either the fluorescent substrate AAMCA (Cayman chemical, Ann Arbor, Mich.,) or ^3H-anandamide ([ETHANOLAMINE-1-3H] American Radiolabeled Chemicals; 1 mCi/ml). The cell lysate or microsome assay is performed in black PerkinElmer OptiPlates-384F by adding FAAH_CHO (whole cell (human whole cell or human WC), cell lysate (human cell lysate or human LY) or microsome) in assay buffer (50 mM Phosphate, pH 8.0, 1 mM EDTA, 200 mM KCl, 0.2% glycerol, 0.1% fatty acid free BSA) to each well, followed by either DMSO or compound and allowed to incubate at 22-25° C. for fifteen minutes. AAMCA substrate was used to achieve a final concentration of 1 μM and reaction allowed to proceed at room temperature for 1-3 hours. Fluorescent release as a measure of FAAH activity was monitored by reading the plate in a Envision plate Reader (Ex: 360/40 nM; Em: 460/40 nM). Whole cell assay is conducted with cells harvested after rinsing tissue culture flasks three times with Ca^++Mg^++ free PBS, incubating for […] in Enzyme free dissociation media and centrifuging for 5 minutes at 1,000 rpm in table top centrifuge. Cells are resuspended in assay buffer at desired cell number in (4×10^4 cells/assay in 96-well format; 1×10^4 cells/assay in 384-well format) and assayed as described.

Row | SMILES | IC50
1 | NS(=O)(=O)c1ccc(-c2[nH]c3ncccc3c2Sc2ccc(Cl)cc2)cc1 [Example A7, 4-{3-[(4-chlorophenyl)sulfanyl]-1H-pyrrolo[2,3-b]pyridin-2-yl}benzenesulfonamide] | 4.39 nM

Biological target: T1, human FAAH (Fatty Acid Amide Hydrolase)
Assay: FAAH whole cell assay on CHO cells expressing human FAAH (human WC), AAMCA fluorescent substrate
Assay type: cell-based
Conditions: human FAAH_CHO whole cell
Description: as §1
Murine (accession number NM_010173) and Rat FAAH (accession number NM_024132) was amplified by reverse transcriptase polymerase chain reaction (RT-PCR) from brain cDNA (BD Biosciences, San Jose, Calif.) using primers 1 and 2 or primers 1 and 3 respectively (see Table). The resulting PCR product was ligated into pCR4 TOPO and DNA sequence confirmed. The full length murine FAAH was subcloned into the mammalian expression vector, pcDEFneo using either EcoRI (murine) or KpnI and EcoRI (rat) restriction sites. Chinese hamster ovary cells (CHO) were transfected following manufacturers protocol (AMAXA). Forty eight hours post transfection, cells were trypsinized and transferred to 96 well plates in Iscove's DMEM media supplemented with 2 mM Glutamine, 10% fetal calf serum, 1 mg/ml geneticin and HT Supplement (0.1 mM sodium hypoxanthine, 0.016 mM thymidine) in order to isolate single clones. Following selection in geneticin, individual clones were selected and FAAH activity was assessed using a whole cell fluorescent anandamide assay, modified from Ramarao et al (2005). Following removal of tissue culture media cells were dislodged following addition of Cellstripper (Mediatech, Inc. Manassas, Va.) and transferred to 96 well black clear bottom assay plate, centrifuged at 1,000 rpm for 3 mins and media removed and replaced with assay buffer (50 mM Tris pH8.0, 1 mM EDTA, 0.1% fatty acid free BSA). The reaction was initiated by addition of fluorescent substrate, AMC Arachidonoyl Amide (Cayman Chemical, Ann Arbor, Mich.) to 1 μM and reaction allowed to proceed for 2 hours at room temperature. Release of fluorescence was monitored in a CytoFluor Multiplate Reader. Cells expressing the highest amount of FAAH activity were selected for study with FAAH inhibitors.
as §2
as §3, with “Cells are resuspended in assay buffer at desired cell number in (4×10^4 cells/assay in 96-well format; 1×10^4 cells/assay in 384-well format) and assayed as described.” left out

Row | SMILES | IC50
2 | NS(=O)(=O)c1ccc(-c2[nH]c3ncccc3c2Sc2ccc(Cl)cc2)cc1 [Example A7, 4-{3-[(4-chlorophenyl)sulfanyl]-1H-pyrrolo[2,3-b]pyridin-2-yl}benzenesulfonamide] | 21.9 nM
3 | Cn1cc2cc(-c3[nH]c4ncccc4c3Sc3ccc(Cl)cc3)ccc2n1 [Example B42] | 5.84 nM
4 | Cn1cc2cc(-c3[nH]c4ncccc4c3Sc3ccc(Cl)cn3)ccc2n1 [Example B44] | 25 nM
5 | OC[C@H]1CC[C@H](c2[nH]c3ncccc3c2Sc2ccc(Cl)cc2)CC1 [Example B52] | 35.6 nM
6 | O=C(c1[nH]c2ncccc2c1Sc1ccc(Cl)cc1)N1CCC(O)CC1 [Example C6, {3-[(4-chlorophenyl)sulfanyl]-1H-pyrrolo[2,3-b]pyridin-2-yl}(4-hydroxypiperidin-1-yl)methanone] | 1090 nM
7 | O=C(NCCO)c1[nH]c2ncccc2c1Sc1ccc(Cl)cc1 [Example C18] | 2980 nM
8 | O=C(NCCCO)c1[nH]c2ncccc2c1Sc1ccc(Cl)cc1 [Example C19] | 607 nM
9 | C[C@H](CO)NC(=O)c1[nH]c2ncccc2c1Sc1ccc(Cl)cc1 [Example C20] | 2110 nM
10 | O=C(NCCCCO)c1[nH]c2ncccc2c1Sc1ccc(Cl)cc1 [Example C21] | 363 nM
11 | O=C(NCC1(CO)CCOCC1)c1[nH]c2ncccc2c1Sc1ccc(Cl)cc1 [Example C22] | 1170 nM
12 | Cn1cccc2c(Sc3ccc(Cl)cc3)c(-c3ccc(C(O)C(F)F)cc3)nc1-2 (centres unmarked) [Example E25] | 59.5 nM
13 | Cn1cccc2c(Sc3ccc(Cl)cc3)c(C(=O)NC3CCC(O)CC3)nc1-2 (centres unmarked) [Example E26] | 504 nM
14 | C[C@@H](Cc1nc2n(C)cccc-2c1Sc1ccc(Cl)cc1)C(C)(C)O [Example E27] | 112 nM
15 | Cn1cccc2c(Sc3ccc(Cl)cc3)c(-c3ccc4c(c3)CNC4=O)nc1-2 [Example E28] | 24 nM
16 | Cn1cc2cc(-c3nc4n(C)cccc-4c3Sc3ccc(Cl)cc3)ccc2n1 [Example E29] | 17.3 nM
17 | Cn1cc2cc(-c3nc4n(C)cccc-4c3Sc3ccc(Cl)cn3)ccc2n1 [Example E30] | 87.2 nM

Row | SMILES | IC50
18 | Cn1cccc2c(Sc3ccc(Cl)cn3)c(-c3ccc4c(c3)CNC4=O)nc1-2 [Example E31] | 144 nM
19 | COC(=O)N1CCC(c2nc3n(C)cccc-3c2Sc2ccc(Cl)cc2)CC1 [Example E32] | 9.35 nM
20 | CCOC(=O)CCc1[nH]c2ncccc2c1Sc1ccc(Cl)cc1 [Example F3, Ethyl 3-{3-[(4-chlorophenyl)sulfanyl]-1H-pyrrolo[2,3-b]pyridin-2-yl}propanoate] | 64.9 nM
21 | Clc1ccc(Sc2c(CC3CCCCC3)[nH]c3ncccc23)cc1 [Example F4] | 266 nM
22 | N#CCCCc1[nH]c2ncccc2c1Sc1ccc(Cl)cc1 [Example F6] | 3470 nM
23 | CCOC(=O)CCCc1[nH]c2ncccc2c1Sc1ccc(Cl)cc1 [Example F10] | 350 nM
24 | Clc1ccc(Sc2c(C3CCNCC3)[nH]c3ncccc23)cc1 [Example G3, 3-[(4-chlorophenyl)sulfanyl]-2-(piperidin-4-yl)-1H-pyrrolo[2,3-b]pyridine] | 672 nM
25 | COC(=O)N1CCC(c2[nH]c3ncccc3c2Sc2ccc(Cl)cc2)CC1 [Example G5, Methyl 4-{3-[(4-chlorophenyl)sulfanyl]-1H-pyrrolo[2,3-b]pyridin-2-yl}piperidine-1-carboxylate] | 11.1 nM
26 | COC(=O)CN1CCC(c2[nH]c3ncccc3c2Sc2ccc(Cl)cc2)CC1 [Example G7, Methyl (4-{3-[(4-chlorophenyl)sulfanyl]-1H-pyrrolo[2,3-b]pyridin-2-yl}piperidin-1-yl)acetate] | 23.8 nM
27 | CC(C)(O)CCc1[nH]c2ncccc2c1Sc1ccc(Cl)cc1 [Example H2, 4-{3-[(4-chlorophenyl)sulfanyl]-1H-pyrrolo[2,3-b]pyridin-2-yl}-2-methylbutan-2-ol] | 152 nM
28 | OCCCc1[nH]c2ncccc2c1Sc1ccc(Cl)cc1 [Example H4, 3-{3-[(4-chlorophenyl)sulfanyl]-1,1-pyrrolo[2,3-b]pyridin-2-yl}propan-1-ol] | 689 nM
29 | CC(C)(O)CN1CCC(c2[nH]c3ncccc3c2Sc2ccc(Cl)cc2)CC1 [Example H5] | 31.8 nM
30 | OCCCCc1[nH]c2ncccc2c1Sc1ccc(Cl)cc1 [Example H6] | 523 nM
31 | C[C@H](CO)Cc1[nH]c2ncccc2c1Sc1ccc(Cl)cc1 [Example H7] | 1200 nM
32 | C[C@@H](Cc1[nH]c2ncccc2c1Sc1ccc(Cl)cc1)C(C)(C)O [Example H8] | 88.5 nM
